Test results from patent US20120238547A1, “2, 3, 6 - TRIAMINO SUBSTITUTED PYRIDINES AS KV7 (KCNQ) CHANNEL MODULATORS” (NEUROSEARCH A/S, priority 2009, published 2012).

Tests used:
[1] = biological target: T1, human Kv7.2+3 (Homo sapiens, UniProt O43525+O43526); experiment: Patch-clamp on HEK293 cell lines stably expressing human Kv7.2+3 channels; type: cell-based; details: current relative to baseline current defined as 100%
T1 construct: expressed in transfected cells; host or cells: HEK293
Text: The effect obtained by these channel activators is described as a percentage increase in baseline current at a given concentration. The baseline current is defined as 100%, and an increase in current is expressed relative to this, i.e. an increase from 1 nA to 1.2 nA is reported as 120%.

[2] = biological target: T1, human Kv7.2+3; experiment: FLIPR-based thallium (I) influx characterization of Kv7.2+3 modulators; type: cell-based; details: for EC50: HEK293 cells over-expressing human Kv7.2+3, Tl+ influx, BTC-AM, 50% of channel activity compared to retigabine control responses; for Efficacy: maximal response relative to the reference (retigabine) response
Experimental: This experiment determines the ability of a test compound to modulate the activity of Kv7.2+3 channels heterologously expressed in human HEK293 cells. The ability is determined relative to retigabine. The activity is determined using a standard thallium (I) sensitive assay, e.g. using a fluorometric method in a Fluorescent Image Plate Reader (FLIPR) as described below in more detail.
Full concentration/response curves are generated and EC50 values are calculated based on max values. EC50 values (Effective Concentration) represent the concentration of the test substance, at which 50% of the channel activity is obtained when compared to retigabine control responses. Maximal response determined relative to the reference (retigabine) response is calculated.
Human HEK293 cells over-expressing human Kv7.2+3 are grown in culture medium (DMEM supplemented with 10% foetal bovine serum), in polystyrene culture flasks ([…]) in a humidified atmosphere of 5% CO2 in air, at 37° C. Cell confluence should be 80-90% on day of plating. Cells are rinsed with 4 ml of PBS (phosphate buffered saline) and incubated 2 min with 1 ml of Trypsin-EDTA. After addition of 25 ml of culture medium cells are re-suspended by trituration with a 25 ml pipette.
The cells are seeded at a density of ˜3×10^6 cells/ml (25 μl/well) in blackwalled, clear bottom, 384-well plates pre-treated with 0.01 g/l poly-D-lysin (20 μl/well for ≧30 min). Plated cells were allowed to proliferate for 24 h before loading with dye.
BTC-AM (50 mg, Invitrogen) is added 25.5 μl DMSO. The BTC-AM stock solution (2 mM) is diluted to a final concentration of 2 μM in Cl^− free assay buffer (in mM: 140 Na^−-gluconate, 2.5 K^+-gluconate, 6 Ca2^+-gluconate, 1 Mg^2+ gluconate, 5 glucose, 10 HEPES, pH 7.3) containing 2 μM ouabain, 2 mM amaranth and 1 mM tartrazine. […]
After the loading period, the Tl^+-sensitive BTC fluorescence signal is measured over time using a FLIPR.
• Temperature: Room temp. • First addition: 12 μl test or control compound after 15 sec at a rate of 30 μl/sec and starting height of 20 μl • Second addition: 12 μl stimulus buffer (Cl^− free assay buffer supplemented with 1 mM Tl2SO4, 5 mM K2SO4 as well as the quenchers amaranth (2 mM) and tartrazine (1 mM)) is added after an additional 3 minutes at a rate of 30 μl/sec and starting height of 30 μl • Reading intervals: First sequence—3 sec×5, 2 sec×24 and 5 sec×25 • Second sequence—1 sec×5, 2 sec×24 and 5 sec×36 Addition plates (compound plate and stimulus plate) are placed in positions 2 and 3, respectively. […] Fluorescence obtained after stimulation is corrected for the mean basal fluorescence (in Cl^− free assay buffer). […]

| IK (%) conc. 0.3 μM, −30 mV, 20 ms [1] | EC50 [2] | Efficacy [2] | IK (%) conc. 0.03 μM, −30 mV, 20 ms ([1]; 0.03 μM) | SMILES |
| --- | --- | --- | --- | --- |
| 293 (n = 2) % | 1200 nM | 98% | – | Cc1ccoc1C(=O)Nc1c(C)cc(N2CCCOCC2)nc1N1CC[C@@H](F)C1 [Compound 1.1, 3-Methyl-furan-2-carboxylic acid [2-((R)-3-fluoro-pyrrolidin-1-yl)-4-methyl-6-[1,4]oxazepan-4-yl-pyridin-3-yl]-amide] |
| 428 (n = 5) % | 190 nM | 98% | 136% | Cc1ccoc1C(=O)Nc1c(C)cc(N2CCOCC2)nc1N1CC[C@@H](F)C1 [Compound 1.2, 3-Methyl-furan-2-carboxylic acid [2-((R)-3-fluoro-pyrrolidin-1-yl)-4-methyl-6-morpholin-4-yl-pyridin-3-yl]-amide] |
